The subject of experiment [1] is 786-0. Nature of the experiment: Antiproliferative activity against human 786-0 cells incubated for 48 hrs by XTT assay. The class given is functional, cell-based. To be noted: 786-0, 48 h. A general note: Tetrazolium assays rely on reduction of a dye to a coloured formazan, in cell work by metabolically active cells.
The nature of experiment [2]: Antiproliferative activity against human Cisplatin and radiotherapy resistant CAL33RR cells incubated for 48 hrs by XTT assay. The class given is functional, cell-based.
For experiment [3], the system named is A498. Nature of the experiment: Antiproliferative activity against human A498 cells incubated for 48 hrs by XTT assay. The experiment is classed as functional, cell-based. The conditions noted are these: A498, 48 h.
Experiment [4] deals with RCC4. Nature of the experiment: Antiproliferative activity against human RCC4 cells incubated for 48 hrs by XTT assay. The class given is functional, cell-based. The conditions noted are these: RCC4, 48 h.
Experiment [5] is described as follows: Antiproliferative activity against human Sunitinib-resistant 786-R cells incubated for 48 hrs by XTT assay. The class given is functional, cell-based.
Experiment [6] in a line: Antiproliferative activity against human Cisplatin and radiotherapy resistant CAL27RR cells incubated for 48 hrs by XTT assay. The class given is functional, cell-based.
Experiment [7] concerns CAL-27. Nature of the experiment: Antiproliferative activity against human CAL-27 cells incubated for 48 hrs by XTT assay. The experiment is classed as functional, cell-based. To be noted: CAL-27, 48 h.
For experiment [8], the system named is CAL-33. Nature of the experiment: Antiproliferative activity against human CAL-33 cells incubated for 48 hrs by XTT assay. The experiment is classed as functional, cell-based. The conditions noted are these: CAL-33, 48 h.
Experiment [9] relates to A498. Nature of the experiment: Inhibition of CXCL8-induced cell migration in human A498 cells at 0.5 uM incubated for 24 hrs by crystal violet staining based analysis relative to control. The class given is functional.
For experiment [10], the system named is A498. Nature of the experiment: Inhibition of cell invasion in human A498 cells cultured as 3D spheroids at 5 uM measured after 7 days by light microscopic imaging analysis relative to control. The class given is functional. To be noted: A498, 168 h, time 7 day.

As to `Cn1cc(-c2ccc3nc(NC(=O)Nc4cccc(Cl)c4)sc3c2)cn1`, the IC50 in [1], in experiment [2], in [3], in [4], in experiment [5] and in experiment [6] was greater than 10 µM in each case. Also, the IC50 (as a rule, the point on the concentration scale where inhibition reaches its midpoint) in [7] is 7 µM; in experiment [8] it was greater than 10 µM.
Take `O=C(Nc1cccc(Cl)c1)Nc1nc2ccc(-c3ccsc3)cc2s1`: the half-maximal inhibitory concentration (IC50) in [1], in [2], in experiment [3], in experiment [4], in [5] and in [6] was greater than 25 µM each time. Besides, the IC50 in experiment [7] and in experiment [8] was greater than 25 µM throughout.
On to `O=C(Nc1cccc(Cl)c1)Nc1nc2ccc(Br)cc2s1`, for which the half-maximal inhibitory concentration (IC50) in [1], in experiment [2], in [3], in experiment [4], in experiment [5] and in experiment [6] was greater than 25 µM each time. Moreover, the half-maximal inhibitory concentration (IC50) in [7] and in experiment [8] was greater than 25 µM in each case.
As to `O=C(Nc1cccc(Cl)c1)Nc1nc2ccc([N+](=O)[O-])cc2s1`, the inhibition (as a rule, the change of the read-out against control, counted positive when it falls) at 0.5 µM in [9] was greater than 50%. This compound registered an inhibition at 5 µM in [10] greater than 75%. Moreover, the IC50 amounted to 3 µM in experiment [2]; 5 µM in experiment [4]; 2.5 µM in experiment [5]; 2 µM in experiment [6]; 3 µM in experiment [7]; 2 µM in experiment [8].
For `O=C(Nc1nc2ccc([N+](=O)[O-])cc2s1)Nc1ccccc1Cl`, the IC50 in [1] was 7 µM; in [2] it was 7 µM; in experiment [3], 6 µM; in experiment [4], 9 µM; in [5], 10 µM; in [6], 7 µM. Also, the IC50 in experiment [7] and in [8] was 8 µM in each case.
On to `Cc1ccc(NC(=O)Nc2nc3ccc([N+](=O)[O-])cc3s2)cc1`, for which the half-maximal inhibitory concentration (IC50) worked out at 5 µM in [1]; 7 µM in experiment [2]; 15 µM in experiment [3]; 10 µM in experiment [4]; 5 µM in experiment [5]; 4 µM in [6]. For the same compound, the IC50 in experiment [7] and in experiment [8] was 7 µM throughout.
In the case of `Cc1ccc(-c2ccc3nc(NC(=O)Nc4cccc(Cl)c4)sc3c2)s1`, the half-maximal inhibitory concentration (IC50) in experiment [1], in [2], in experiment [4], in experiment [5], in experiment [6] and in experiment [7] was greater than 10 µM throughout. In experiment [8], this compound came in with an IC50 greater than 10 µM.
As for `COc1ccc(NC(=O)Nc2nc3ccc([N+](=O)[O-])cc3s2)cc1`, the IC50 was 25 µM in experiment [1]; greater than 25 µM in experiment [2]; 20 µM in experiment [3]; 20 µM in experiment [4]; 25 µM in experiment [5]; greater than 25 µM in experiment [6]. The IC50 in [7] and in [8] was greater than 25 µM in each case.
Turning to `CC(=O)Nc1ccc2nc(NC(=O)Nc3cccc(Cl)c3)sc2c1`, the IC50 in experiment [1] was greater than 25 µM; in experiment [2] it was greater than 25 µM; in experiment [3], 25 µM; in experiment [4] it was greater than 25 µM; in experiment [5] it was 25 µM; in [6], 7 µM. Also, the IC50 in experiment [7] was greater than 25 µM; in [8], 20 µM.
On to `O=C(Nc1ccccc1)Nc1nc2cc([N+](=O)[O-])ccc2o1`, for which the IC50 in experiment [1], in experiment [2], in experiment [3], in [4], in experiment [5] and in [6] was greater than 25 µM throughout. Besides, the 50% inhibitory concentration (IC50) in experiment [7] and in experiment [8] was greater than 25 µM each time.
For `O=C(Nc1cccc(Cl)c1)Nc1nc2ccc(-c3ccoc3)cc2s1`, the IC50 in experiment [1], in experiment [2], in experiment [3], in experiment [4], in experiment [5] and in experiment [6] was greater than 10 µM throughout. The concentration for half-maximal inhibition (IC50) in [7] and in experiment [8] was greater than 10 µM each time.
Consider `Nc1ccc2nc(NC(=O)Nc3cccc(Cl)c3)sc2c1`, for which the IC50 in [1] was 20 µM; in experiment [2], greater than 25 µM; in experiment [3], 20 µM; in experiment [4], 20 µM; in [5], greater than 25 µM; in experiment [6] it was 20 µM. Besides, the IC50 in [7] and in experiment [8] was greater than 25 µM throughout.
Consider `O=C(Nc1cccc(Cl)c1)Nc1nc2ccc(-c3ccccn3)cc2s1`, for which the 50% inhibitory concentration (IC50) is 15 µM in experiment [1]; greater than 25 µM in experiment [2]; 12 µM in [3]; 25 µM in experiment [4]; 8 µM in experiment [5]; greater than 25 µM in experiment [6]. In addition, the IC50 in [7] and in [8] was greater than 25 µM in each case.
Consider `CCOc1ccc2nc(NC(=O)Nc3cccc(Cl)c3)sc2c1`, for which the IC50 in experiment [1] is greater than 25 µM; in experiment [2] it was greater than 25 µM; in experiment [3], greater than 25 µM; in [4], greater than 25 µM; in experiment [5], greater than 25 µM; in experiment [6], 20 µM. For the same compound, the figures for the IC50 in [7] and in [8] were greater than 25 µM and 4 µM, respectively.
Consider `O=C(Nc1cccc(Cl)c1)Nc1nc2ccc(-c3cccs3)cc2s1`, for which the IC50 in experiment [1], in experiment [2], in experiment [3], in [4], in experiment [5] and in experiment [6] was greater than 25 µM throughout. Besides, the IC50 in experiment [7] and in [8] was greater than 25 µM throughout.
Consider `O=C(Nc1cccc(Cl)c1)Nc1nc2cc([N+](=O)[O-])ccc2o1`, for which the IC50 was 25 µM in experiment [1]; greater than 25 µM in experiment [2]; 25 µM in experiment [3]; 25 µM in experiment [4]; greater than 25 µM in experiment [5]; greater than 25 µM in experiment [6]. Further, the IC50 in experiment [7] and in experiment [8] was greater than 25 µM in each case.
For `Cc1ccccc1NC(=O)Nc1nc2ccc([N+](=O)[O-])cc2s1`, the IC50 came to 8 µM in experiment [1]; 4 µM in [2]; 6 µM in experiment [3]; 10 µM in experiment [4]; 6 µM in experiment [5]; 4 µM in experiment [6]. For the same compound, the IC50 in [7] and in [8] was 4 µM each time.
Regarding `O=C(Nc1nc2ccc([N+](=O)[O-])cc2s1)Nc1ccccc1Br`, the IC50 in [1] was 15 µM; in [2] it was greater than 25 µM; in experiment [3], 20 µM; in [4] it was 25 µM; in experiment [5], 14 µM; in experiment [6] it was 25 µM. For the same compound, the IC50 in [7] was greater than 25 µM; in [8], 8 µM.
Regarding `O=C(Nc1cccc(Cl)c1)Nc1nc2ccc(-c3ccco3)cc2s1`, the IC50 in [1], in experiment [2], in experiment [3], in experiment [4], in experiment [5] and in [6] was greater than 25 µM in each case. For the same compound, the concentration for half-maximal inhibition (IC50) in [7] and in experiment [8] was greater than 25 µM in each case.
In the case of `O=C(Nc1cccc(Cl)c1)Nc1nc2cc([N+](=O)[O-])ccc2[nH]1`, the IC50 was 4 µM in experiment [1]; 25 µM in experiment [2]; 8 µM in experiment [3]; 3 µM in experiment [4]; 4 µM in experiment [5]; 10 µM in experiment [6]. For the same compound, the values for the IC50 in experiment [7] and in [8] were 25 µM and 15 µM, respectively.
For `O=C(Nc1cccc(Cl)c1)Nc1nc2ccc([N+](=O)[O-])cc2o1`, the IC50 was 20 µM in experiment [1]; 12 µM in [2]; 22 µM in experiment [3]; 25 µM in experiment [4]; greater than 25 µM in experiment [5]; greater than 25 µM in experiment [6]. Also, the IC50 in experiment [7] and in experiment [8] was greater than 25 µM throughout.
As to `CCOc1ccc2nc(NC(=O)Nc3cc(Cl)cc(Cl)c3)sc2c1`, the IC50 in experiment [1] was greater than 25 µM; in [2], greater than 25 µM; in experiment [3] it was greater than 25 µM; in experiment [4], greater than 25 µM; in experiment [5] it was greater than 25 µM; in experiment [6], 20 µM. For the same compound, the IC50 is greater than 25 µM in experiment [7] and 15 µM in experiment [8].
On to `O=C(Nc1ccccc1)Nc1nc2ccc([N+](=O)[O-])cc2s1`, for which the half-maximal inhibitory concentration (IC50) was determined as 5 µM in [1]; 25 µM in experiment [2]; 3 µM in experiment [3]; 5 µM in [4]; 5 µM in experiment [5]; 4 µM in experiment [6]. The IC50 in experiment [7] is 25 µM; in [8] it was 6 µM.
For `CS(=O)(=O)Nc1ccc2nc(NC(=O)Nc3cccc(Cl)c3)sc2c1`, the half-inhibitory concentration (IC50) in [1], in [2], in [3], in [4], in experiment [5] and in experiment [6] was greater than 25 µM each time. Further, the IC50 in [7] and in experiment [8] was greater than 25 µM in each case.
Turning to `Cc1ccc(NC(=O)Nc2nc3ccc([N+](=O)[O-])cc3o2)cc1`, the IC50 was 4 µM in [1]; 20 µM in [2]; 9 µM in [3]; 2 µM in experiment [4]; 25 µM in experiment [5]; 20 µM in experiment [6]. The half-inhibitory concentration (IC50) amounted to 25 µM in [7] and 15 µM in experiment [8].
On to `O=C(Nc1ccccc1)Nc1nc2cc([N+](=O)[O-])ccc2[nH]1`, for which the IC50 was 25 µM in experiment [1]; greater than 25 µM in experiment [2]; 25 µM in experiment [3]; greater than 25 µM in experiment [4]; greater than 25 µM in experiment [5]; 15 µM in [6]. Besides, the IC50 in [7] was greater than 25 µM; in experiment [8] it was 20 µM.
